Measured values reported in patent KR20210050472A, “에독사반염 및 이를 포함하는 약제학적 조성물” (priority 2019, dated 2021).
Like-named read-outs stand apart in the source and are kept apart here.

Assays:
[1] = Heat stability test (Test Example 1), crystal form retention at 40±2℃, 75±5% RH; assay type: physicochemical; conditions: for stability of crystal form: 40℃/75% RH
[2] = Stability test in pH solutions (Test Example 2), related substances by HPLC; assay type: physicochemical; conditions: for degraded: read-out: amount of related substances generated
[3] = 40℃, 75% RH, from week 8 of the stability test

For `CN1CCc2nc(C(=O)N[C@@H]3C[C@@H](C(=O)N(C)C)CC[C@@H]3NC(=O)C(=O)Nc3ccc(Cl)cn3)sc2C1` [말산염 결정형, 에독사반 말산염 결정형, reference compound], the “change in appearance and powder X-ray diffraction values” ([1]; 40℃, 75% RH, week 24) was “성상 변화 및 분말 X선 회절 값이 변화”, the “stability of crystal form” value ([1]; 8 weeks, 말산염) was “결정형 유지” and the “stability of crystal form” value ([1]; 24 weeks, 말산염) was “결정형 변화”.
With `CN1CCc2nc(C(=O)N[C@@H]3C[C@@H](C(=O)N(C)C)CC[C@@H]3NC(=O)C(=O)Nc3ccc(Cl)cn3)sc2C1` [벤젠술폰산염 결정형 Ⅰ형, 에독사반 벤젠술폰산염 결정형 Ⅰ형] the “stability of crystal form” value ([1]; 8 weeks, 벤젠술폰산염) was “결정형 유지”, the “stability of crystal form” value ([1]; 16 weeks) was “결정형 유지” and the “stability of crystal form” value ([1]; 24 weeks, 벤젠술폰산염) was “결정형 유지”.
With `CN1CCc2nc(C(=O)N[C@@H]3C[C@@H](C(=O)N(C)C)CC[C@@H]3NC(=O)C(=O)Nc3ccc(Cl)cn3)sc2C1` [벤젠술폰산염 결정형 Ⅱ형, 에독사반 벤젠술폰산염 결정형 Ⅱ형, reference compound] the “change of crystal form” value [1, 3] was “일부가 결정형 Ⅰ으로 변화”, the “change of endothermic point by differential scanning calorimetry” value [1, 3] was “결정형 Ⅰ형의 흡열점이 관찰” and the “stability of crystal form” value ([1]; 8 weeks, 벤젠술폰산염) was “일부 결정형 Ⅰ형으로 변화”.
For `CN1CCc2nc(C(=O)N[C@@H]3C[C@@H](C(=O)N(C)C)CC[C@@H]3NC(=O)C(=O)Nc3ccc(Cl)cn3)sc2C1` [에디실산염 수화물 결정형, 에독사반 에디실산염 수화물 결정형], the “change in crystal form and appearance” value ([1]; 40℃, 75% RH, over 24 weeks) was “결정형의 변화 및 성상의 변화가 발생하지 않아”, the “stability of crystal form” value ([1]; 8 weeks, 에디실산염 수화물) was “결정형 유지” and the “stability of crystal form” value ([1]; 16 weeks) was “결정형 유지”. The “stability of crystal form” value ([1]; 24 weeks, 에디실산염 수화물) was “결정형 유지”, the degraded ([2]; distilled water (DW)) was 0.18% and the degraded ([2]; pH 1.2) was 19.3%. The degraded ([2]; pH 7.8) was 11.4%, the “total related substances generated, reduction versus tosylate hydrate” value ([2]; pH 7.8 solution) was ~4.5% and the “total related substances generated, compared with tosylate hydrate” value ([2]; solutions of DW, pH 1.2 and pH 7.8) was “총유연물질이 적게 발생”.
